“Also recorded” adds a separate entry of the source. Read-outs that look alike come from different tables or passages of the source.
How the values were obtained:
[1] = biological target: T1, Electrophorus electricus AChE (EeAChE) (Electrophorus electricus, UniProt O42275); assay: Inhibition constant and mechanism vs EeAChE, Dixon's method; assay type: biochemical; settings: for inhibition mechanism on EeAChE: Dixon's plot, best fitting model; for α, EeAChE: mixed inhibition, α > 1 free enzyme, α < 1 enzyme–substrate complex; for Ki: three substrate and five inhibitor concentrations, read-out: Ki ± SD, EeAChE
T1 construct: purchased Sigma-Aldrich (Milan, Italy)
T1 sequence (O42275 24-633): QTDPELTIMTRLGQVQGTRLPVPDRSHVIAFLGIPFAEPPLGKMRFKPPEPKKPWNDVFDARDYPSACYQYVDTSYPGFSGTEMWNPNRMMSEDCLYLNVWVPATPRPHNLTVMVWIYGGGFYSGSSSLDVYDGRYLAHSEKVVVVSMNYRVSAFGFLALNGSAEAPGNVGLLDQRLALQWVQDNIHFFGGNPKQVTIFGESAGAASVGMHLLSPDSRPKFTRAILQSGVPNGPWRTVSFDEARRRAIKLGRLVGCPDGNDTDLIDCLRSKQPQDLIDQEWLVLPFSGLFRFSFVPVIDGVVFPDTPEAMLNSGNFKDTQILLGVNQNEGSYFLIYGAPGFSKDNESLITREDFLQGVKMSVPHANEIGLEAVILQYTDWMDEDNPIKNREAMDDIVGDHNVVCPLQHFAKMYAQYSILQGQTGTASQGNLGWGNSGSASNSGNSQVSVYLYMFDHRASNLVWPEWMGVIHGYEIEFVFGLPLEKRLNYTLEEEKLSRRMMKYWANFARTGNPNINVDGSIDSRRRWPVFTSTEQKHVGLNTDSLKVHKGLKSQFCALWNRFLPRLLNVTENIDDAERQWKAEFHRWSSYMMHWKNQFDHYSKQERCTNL
Method: . The recorded data were analyzed with the enzyme kinetic module of SigmaPlot to find the best fitting model of inhibition using the linear regression analysis. The reference kinetic models used in the regression analysis were competitive, noncompetitive, uncompetitive, and mixed. Each determination was repeated five times, and incorrect values were discarded to reduce the standard deviation within the limit of 5%. In this way, the regression lines obtained have a linear regression coefficient (R^2) higher than 0.95. Dixon’s plots of all tested compounds are reported in the Supporting Information (Figures S1–S12).
18, 22, 25, 26, 28, and 30 toward eqBChE). For each compound, a 500 μM stock solution was prepared in H2O/DMSO or in 10^–2 M HCl and diluted in water to prepare solutions of opportune concentrations to introduce in the cuvette volumes ranging from 30 to 100 μL, to obtain the desired final concentrations. The maximum amount of DMSO used for the preparation of the stock solution was calculated to have a DMSO content in cuvette <0.033%.
Three milliliters of 0.1 M phosphate buffer (pH = 7.4) containing DTNB (0.25 mM) and EeAChE (0.083 UmL^–1) or eqBChE (0.083 UmL^–1) was mixed with the opportune volume of the inhibitor solution to obtain a final inhibitor concentration in cuvette between 90 and 1800 nM. With this solution, the blank was made. […]. The absorbance variations were measured at 412 nm at 25 °C between 0.5 and 1.5 min.
To determine the inhibition constants (Ki) and the inhibition mechanisms, the rates of hydrolysis at three different concentrations of substrate in the presence of five different concentrations of inhibitor were measured.

tau protein = biological target: T2, tau protein (Homo sapiens, UniProt P10636); assay: Inhibition of tau aggregation in intact E. coli cells, thioflavin-S; assay type: cell-based, Escherichia coli; settings: [I] = 100 μM
T2 construct: expressed in transfected cells; host or cells: E. coli BL21 (DE3) with pTARA and pRKT42
T2 sequence (P10636 1-441 isoform P10636-8): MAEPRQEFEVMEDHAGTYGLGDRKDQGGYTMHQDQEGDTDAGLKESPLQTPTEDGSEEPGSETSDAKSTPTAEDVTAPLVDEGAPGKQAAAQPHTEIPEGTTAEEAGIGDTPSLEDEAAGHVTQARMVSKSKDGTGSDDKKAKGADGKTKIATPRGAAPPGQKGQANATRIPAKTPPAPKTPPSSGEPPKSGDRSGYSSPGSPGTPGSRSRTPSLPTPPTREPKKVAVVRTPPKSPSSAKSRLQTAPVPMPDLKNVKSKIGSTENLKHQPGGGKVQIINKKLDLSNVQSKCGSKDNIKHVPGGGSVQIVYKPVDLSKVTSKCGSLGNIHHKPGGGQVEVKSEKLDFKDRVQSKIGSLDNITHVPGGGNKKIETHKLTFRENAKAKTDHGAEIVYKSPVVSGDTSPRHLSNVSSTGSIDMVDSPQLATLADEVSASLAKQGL
Method: The anti-aggregating effect of the tested compounds was monitored by a cell-based assay in intact Escherichia coli cells that overexpress either the Aβ42 peptide or tau protein, which upon overexpression form insoluble inclusion bodies that were stained with thioflavin-S, an amyloid specific dye.[36] The percentages of inhibition toward Aβ42 and tau aggregation were determined at an inhibitor concentration of 100 μM, and the obtained results are reported in Table 7.
E. coli BL21 (DE3) competent cells were transformed with pTARA containing the RNA-polymerase gene of T7 phage (T7RP) under the control of the promoter PBAD. E. coli BL21 (DE3) with pTARA competent cells were transformed with the pRKT42 vector encoding four repeats of the tau protein in two inserts. For overnight culture preparation, 10 mL of the M9 medium containing 0.5% of glucose, 50 μg·mL^–1 of ampicillin, and 12.5 μg·mL^–1 of chloramphenicol was inoculated with a colony of BL21 (DE3) bearing the plasmids to be expressed at 37 °C. For expression of the tau protein, the required volume of overnight culture to obtain 1:500 dilution was added to the fresh M9 minimal medium containing 0.5% of glucose, 50 μg·mL^–1 of ampicillin, 12.5 μg·mL^–1 of chloramphenicol, and 250 μM Th-S. The bacterial culture was grown at 37 °C and 250 rpm. When the cell density reached OD600 = 0.6, an amount of 980 μL of culture was transferred into Eppendorf tubes of 1.5 mL with 10 μL of each compound to be tested in DMSO and 10 μL of arabinose at 25%. The final concentration of the drug was fixed at 100 μM. The samples were grown overnight at 37 °C and 1400 rpm using a ThermoMixer (Eppendorf, Hamburg, Germany). As negative control (maximal presence of tau), the same amount of DMSO without the drug was added in the sample. In parallel, non-induced samples (in the absence of arabinose) were also prepared and used as positive controls (absence of tau). In addition, these samples were used to assess the potential intrinsic toxicity of the compounds and to confirm the correct bacterial growth.
Th-S (T1892) and other chemical reagents were purchased from Sigma (St. Louis, MO). The Th-S stock solution ([…]) was prepared in double-distilled water purified through a Milli-Q system (Millipore, USA). Th-S fluorescence and absorbance were tracked using a DTX 800 plate reader Multimode Detector equipped with a Multimode Analysis Software (Beckman-Coulter, USA). Filters of 430/35 and 485/20 nm were used for the excitation and emission wavelengths, respectively. Filters of 535/25 nm were also used for the absorbance determination. To normalize the Th-S fluorescence as a function of the bacterial concentration, OD600 was obtained using a Shimadzu UV-2401 PC UV–vis spectrophotometer (Shimadzu, Japan). Note that the fluorescence normalization was carried out considering as 100% the Th-S fluorescence of the bacterial cells expressing the peptide or protein in the absence of drug and 0% the Th-S fluorescence of the bacterial cells not expressing the peptide or protein. A minimum of five independent assays (with three replicates for assay) was performed for each tested compound. More assays were performed to obtain a SEM < 5% with a maximum of 10 independent assays.

[2] = biological target: T1, Electrophorus electricus AChE (EeAChE); assay: Percent inhibition of EeAChE, Ellman's spectrophotometric method; assay type: biochemical; settings: for inhibition at 90 µM: read-out: % inhibition vs EeAChE ± SD (90 uM), 90 uM; for inhibition at 900 µM: read-out: % inhibition vs EeAChE ± SD (900 uM), 900 uM; for inhibition at 0.09 µM: read-out: % inhibition vs EeAChE ± SD, [I] 90 nM; for inhibition at 0.9 µM: read-out: % inhibition vs EeAChE ± SD, [I] 900 nM
Method: All other chemical and biological reagents and solvents used were of the highest analytical, commercially available grade. The water, utilized for the preparation of the phosphate buffer and of the compound solutions, was distilled and filtered on nylon membrane filters with a 0.2 μm pore size with the Millipore Filtration apparatus before each use. Micropipettes Labmate (BRAND Dig. 10–100 μL; Dig. 100–1000 μL; Dig. 0.1–2 μL) and Transferpette (HIGH TECH LAB LM200: 20–200 μL; LM5000: 1000–5000 μL) were used to collect the samples. The assays were carried out by a double beam UV–vis Lambda 40 Perkin Elmer spectrophotometer using optical polystyrene cuvettes (10 × 10 × 45 mm, 340–800 nm optical transparency); each measure was repeated at least in triplicate. […] The spectrophotometric method of Ellman[25] with minor modifications was used to evaluate the inhibition of ChEs. […] EeAChE and eqBChE were periodically tested to evaluate the effective enzymatic activity.
For all the synthesized compounds, the percentages of inhibition toward AChE of Electrophorus electricus (EeAChE) and equine BChE (eqBChE) were evaluated.
Three milliliters of a solution in 0.1 M phosphate buffer (pH = 7.4) containing DTNB (0.25 mM) and EeAChE (0.083 UmL^–1) or eqBChE (0.083 UmL^–1) was placed in a polystyrene cuvette of 1.0 cm path length; 1 μL of a […] With this solution, the blank was made. […] Each experiment was repeated at least in triplicate.

[3] = read-out: % inhibition vs EeAChE ± SD (9 uM), 9 uM, supplement csv
[4] = 0.0833 U/mL enzyme, 100 μM acetylthiocholine
[5] = read-out: % inhibition vs EeAChE ± SD, [I] 9 μM, 0.0833 U/mL enzyme, 100 μM acetylthiocholine

SMILES: c1ccc(CNCCCCCNc2ncccn2)cc1 [Compound 9, N^1-Benzyl-N^5-(pyrimidin-2-yl)pentane-1,5-diamine]
- inhibition mechanism on EeAChE [1]: mixed
- α, EeAChE [1]: 7.5
- Ki [1]: 312 ± 108 nM
- inhibition at 100 µM (tau protein): 2.6%
- inhibition at 9 µM [2, 3]: 90.2 ± 0.7%
- inhibition at 90 µM ([2]; supplement csv): 14.1 ± 1.4%
- inhibition at 900 µM ([2]; supplement csv): 57.1 ± 0.9%
- inhibition at 0.09 µM [2, 4]: 14.1 ± 1.4%
- inhibition at 0.9 µM [2, 4]: 40 to 60%
- inhibition at 9 µM [2, 5]: ~90%

SMILES: Oc1cccc(CNCCCCCCNc2ncccn2)c1O [Compound 20, 3-(((6-(Pyrimidin-2-ylamino)hexyl)amino)methyl)benzene-1,2-diol]
- inhibition at 100 µM (tau protein): 4.6%
- inhibition at 9 µM [2, 3]: 90.5 ± 0.5%
- inhibition at 90 µM ([2]; supplement csv): 12.8 ± 1.9%
- inhibition at 900 µM ([2]; supplement csv): 53.6 ± 3.1%
- inhibition at 0.09 µM [2, 4]: 12.8 ± 1.9%
- inhibition at 0.9 µM [2, 4]: 40 to 60%
- inhibition at 9 µM [2, 5]: ~90%

SMILES: COc1ccccc1CNCCCCCCNc1ccccn1 [Compound 28, N^1-(2-Methoxybenzyl)-N^6-(pyridin-2-yl)hexane-1,6-diamine]
- inhibition mechanism on EeAChE [1]: mixed
- α, EeAChE [1]: 1.2
- Ki [1]: 1320 ± 622 nM
- inhibition at 100 µM (tau protein): 17%
- inhibition at 9 µM [2, 3]: 58.6 ± 1.1%
- inhibition at 90 µM ([2]; supplement csv): 74.3 ± 1.4%
- inhibition at 900 µM ([2]; supplement csv): 9 ± 1.6%
- inhibition at 0.9 µM [2, 4]: 9 ± 1.6%
- inhibition at 9 µM [2, 5]: ~60%

SMILES: c1ccc(CNCCCCCCNc2ncccn2)cc1 [Compound 13, N^1-Benzyl-N^6-(pyrimidin-2-yl)hexane-1,6-diamine]
- inhibition mechanism on EeAChE [1]: mixed
- α, EeAChE [1]: 0.3
- Ki [1]: 426 ± 132 nM
- inhibition at 100 µM (tau protein): 12.6%
- inhibition at 9 µM [2, 3]: 92.9 ± 0.4%
- inhibition at 90 µM ([2]; supplement csv): 19.2 ± 1.4%
- inhibition at 900 µM ([2]; supplement csv): 60.3 ± 1.5%
- inhibition at 0.09 µM [2, 4]: 19.2 ± 1.4%
- inhibition at 9 µM [2, 5]: ~90%

SMILES: Oc1cccc(CNCCCCCCNc2ncccn2)c1 [Compound 19, 3-(((6-(Pyrimidin-2-ylamino)hexyl)amino)methyl)phenol]
- inhibition mechanism on EeAChE [1]: uncompetitive; also recorded: uncomp
- Ki [1]: 509 ± 18 nM
- inhibition at 100 µM (tau protein): 9.9%
- inhibition at 9 µM [2, 3]: 84.4 ± 0.3%
- inhibition at 900 µM ([2]; supplement csv): 39 ± 1.9%
- inhibition at 0.9 µM [2, 4]: 40 to 60%
- inhibition at 9 µM [2, 5]: ~90%

SMILES: c1ccc(CNCCCCCCNc2ccccn2)cc1 [Compound 25, N^1-Benzyl-N^6-(pyridin-2-yl)hexane-1,6-diamine]
- inhibition mechanism on EeAChE [1]: mixed
- α, EeAChE [1]: 0.8
- Ki [1]: 995 ± 374 nM
- inhibition at 100 µM (tau protein): 6.7%
- inhibition at 9 µM [2, 3]: 73.3 ± 0.1%
- inhibition at 90 µM ([2]; supplement csv): 71.6 ± 2.1%
- inhibition at 900 µM ([2]; supplement csv): 23.1 ± 5.7%
- inhibition at 0.9 µM [2, 4]: 23.1 ± 5.7%
- inhibition at 9 µM [2, 5]: 73%

SMILES: COc1cc(CNCCCCCCNc2ccccn2)ccc1O [Compound 30, 2-Methoxy-4-(((6-(pyridin-2-ylamino)hexyl)amino)methyl)phenol]
- inhibition at 100 µM (tau protein): 12.8%
- inhibition at 9 µM [2, 3]: 61.8 ± 1.9%
- inhibition at 90 µM ([2]; supplement csv): 90.9 ± 0.6%
- inhibition at 900 µM ([2]; supplement csv): 17.3 ± 0.6%
- inhibition at 0.9 µM [2, 4]: 17.3 ± 0.6%
- inhibition at 9 µM [2, 5]: ~60%

SMILES: COc1cc(CNCCCCCCNc2ncccn2)ccc1O [Compound 18, 2-Methoxy-4-(((6-(pyrimidin-2-ylamino)hexyl)amino)methyl)phenol]
- inhibition at 100 µM (tau protein): 1%
- inhibition at 9 µM [2, 3]: 59.5 ± 3.6%
- inhibition at 900 µM ([2]; supplement csv): 14.7 ± 0.5%
- inhibition at 0.9 µM [2, 4]: 14.7 ± 0.5%
- inhibition at 9 µM [2, 5]: 60 to 70%

SMILES: Brc1ccc(CNCCCCCCNc2ccccn2)cc1 [Compound 26, N^1-(4-Bromobenzyl)-N^6-(pyridin-2-yl)hexane-1,6-diamine]
- inhibition at 100 µM (tau protein): 7.3%
- inhibition at 9 µM [2, 3]: 23.5 ± 2.2%
- inhibition at 90 µM ([2]; supplement csv): 76.8 ± 0.5%
- inhibition at 9 µM [2, 5]: 24 to 30%

SMILES: c1cnc(NCCCCCCNCc2c[nH]c3ccccc23)nc1 [Compound 22, N^1-((1H-Indol-3-yl)methyl)-N^6-(pyrimidin-2-yl)hexane-1,6-diamine]
- inhibition at 100 µM (tau protein): 6.8%
- inhibition at 9 µM [2, 3]: 69.2 ± 1.4%
- inhibition at 900 µM ([2]; supplement csv): 16.4 ± 1.9%
- inhibition at 0.9 µM [2, 4]: 16.4 ± 1.9%
- inhibition at 9 µM [2, 5]: 60 to 70%
